From PubChem BioAssay AID1963970 (Molecular Pharmacology Branch, DTP, NCI, 2024)

System: 931267-113-T-J1-PDC multicell spheroid viability
Test: Anticancer human tumor 931267-113-T-J1-PDC patient-derived colon adenocarcinoma cell line growth inhibition [PI3K]
Conditions: for IC50: curve of first compound; for viability, T/C: stronger effect = lower value
Summary of the method: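 Complex 3D spheroids (cancer cells + endothelial HUVEC + mesenchymal stem cells); drug pairs of targeted agent x inavolisib/alpelisib/duvelisib/copanlisib; half-log series from ~Cmax, max 10 microM if Cmax unknown; endpoint viability.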

[1] = second compound 0.00316 µM, first compound 0.0316 µM
[2] = second compound 0.00316 µM, first compound 0.1 µM
[3] = second compound 0.00316 µM, first compound 0.316 µM
[4] = second compound 0.00316 µM, first compound 1 µM
[5] = second compound 0.01 µM, first compound 0.0316 µM
[6] = second compound 0.01 µM, first compound 0.1 µM
[7] = second compound 0.01 µM, first compound 0.316 µM
[8] = second compound 0.01 µM, first compound 1 µM
[9] = second compound 0.0316 µM, first compound 0.0316 µM
[10] = second compound 0.0316 µM, first compound 0.1 µM
[11] = second compound 0.0316 µM, first compound 0.316 µM
[12] = second compound 0.0316 µM, first compound 1 µM
[13] = second compound 0.1 µM, first compound 0.0316 µM
[14] = second compound 0.1 µM, first compound 0.1 µM
[15] = second compound 0.1 µM, first compound 0.316 µM
[16] = second compound 0.1 µM, first compound 1 µM
[17] = second compound 0.316 µM, first compound 0.0316 µM
[18] = second compound 0.316 µM, first compound 0.1 µM
[19] = second compound 0.316 µM, first compound 0.316 µM
[20] = second compound 0.316 µM, first compound 1 µM
[21] = second compound 1 µM, first compound 0.0316 µM
[22] = second compound 1 µM, first compound 0.1 µM
[23] = second compound 1 µM, first compound 0.316 µM
[24] = second compound 1 µM, first compound 1 µM
[25] = second compound 0.0316 µM, first compound 3.16 µM
[26] = second compound 0.0316 µM, first compound 10 µM
[27] = second compound 0.1 µM, first compound 3.16 µM
[28] = second compound 0.1 µM, first compound 10 µM
[29] = second compound 0.316 µM, first compound 3.16 µM
[30] = second compound 0.316 µM, first compound 10 µM
[31] = second compound 1 µM, first compound 3.16 µM
[32] = second compound 1 µM, first compound 10 µM
[33] = second compound 0.00316 µM, first compound 3.16 µM
[34] = second compound 0.00316 µM, first compound 10 µM
[35] = second compound 0.01 µM, first compound 3.16 µM
[36] = second compound 0.01 µM, first compound 10 µM
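Note: viability read 7 days after compound addition.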

`CCN1CCN(Cc2ccc(Nc3ncc(F)c(-c4cc(F)c5nc(C)n(C(C)C)c5c4)n3)nc2)CC1` + CC(Nc1ccc2c(c1)OCCn1cc(N3C(=O)OCC3C(F)F)nc1-2)C(N)=O gave an IC50 (second compound 0.00316 µM) of over 1 µM, an IC50 (second compound 0.01 µM) of over 1 µM and an IC50 (second compound 0.0316 µM) of over 1 µM. The IC50 (second compound 0.1 µM) was over 1 µM, the IC50 (second compound 0.316 µM) was over 1 µM and the IC50 (second compound 1 µM) was 0.452 µM. The viability, T/C (second compound 0.00316 µM, first compound 0.00316 µM) was 95.5%, the viability, T/C (second compound 0.00316 µM, first compound 0.01 µM) was 99.3% and the viability, T/C [1] was 102%. For the same compound, the viability, T/C [2] was 108%, the viability, T/C [3] was 99.3% and the viability, T/C [4] was 80.8%. The viability, T/C (second compound 0.01 µM, first compound 0.00316 µM) was 108%, the viability, T/C (second compound 0.01 µM, first compound 0.01 µM) was 96.7% and the viability, T/C [5] was 99.2%. It also gave a viability, T/C [6] of 91.5%, a viability, T/C [7] of 93.4% and a viability, T/C [8] of 80.7%. It also gave a viability, T/C (second compound 0.0316 µM, first compound 0.00316 µM) of 105%, a viability, T/C (second compound 0.0316 µM, first compound 0.01 µM) of 101% and a viability, T/C [9] of 95.2%. The viability, T/C [10] was 85.2%, the viability, T/C [11] was 86% and the viability, T/C [12] was 70.2%. The viability, T/C (second compound 0.1 µM, first compound 0.00316 µM) was 92.8%, the viability, T/C (second compound 0.1 µM, first compound 0.01 µM) was 97.8% and the viability, T/C [13] was 94.1%. It also gave a viability, T/C [14] of 79.7%, a viability, T/C [15] of 69.7% and a viability, T/C [16] of 60.9%. It also gave a viability, T/C (second compound 0.316 µM, first compound 0.00316 µM) of 80.4%, a viability, T/C (second compound 0.316 µM, first compound 0.01 µM) of 84.5% and a viability, T/C [17] of 79%. The viability, T/C [18] was 70.4%, the viability, T/C [19] was 62.5% and the viability, T/C [20] was 51.6%. For the same compound, the viability, T/C (second compound 1 µM, first compound 0.00316 µM) was 86.7%, the viability, T/C (second compound 1 µM, first compound 0.01 µM) was 79.4% and the viability, T/C [21] was 65.7%. For the same compound, the viability, T/C [22] was 59.2%, the viability, T/C [23] was 52% and the viability, T/C [24] was 46.3%.

`CNC(=O)c1ccc(N2C(=S)N(c3ccc(C#N)c(C(F)(F)F)c3)C(=O)C2(C)C)cc1F` + Cc1nc(NC(=O)N2CCCC2C(N)=O)sc1-c1ccnc(C(C)(C)C(F)(F)F)c1 showed an IC50 (second compound 0.0316 µM) of over 10 µM, an IC50 (second compound 0.1 µM) of over 10 µM and an IC50 (second compound 0.316 µM) of over 10 µM. It also gave an IC50 (second compound 1 µM) of over 10 µM, an IC50 (second compound 3.16 µM) of over 10 µM and an IC50 (second compound 10 µM) of 3.66 µM. It also gave a viability, T/C [9] of 112%, a viability, T/C [10] of 85% and a viability, T/C [11] of 95.4%. For the same compound, the viability, T/C [12] was 105%, the viability, T/C [25] was 101% and the viability, T/C [26] was 93.5%. The viability, T/C [13] was 94%, the viability, T/C [14] was 105% and the viability, T/C [15] was 98.7%. It also gave a viability, T/C [16] of 105%, a viability, T/C [27] of 99.5% and a viability, T/C [28] of 98.5%. The viability, T/C [17] was 92.9%, the viability, T/C [18] was 75.9% and the viability, T/C [19] was 87.9%. The viability, T/C [20] was 80.5%, the viability, T/C [29] was 89.3% and the viability, T/C [30] was 76.5%. It also gave a viability, T/C [21] of 89.6%, a viability, T/C [22] of 66.4% and a viability, T/C [23] of 73.9%. For the same compound, the viability, T/C [24] was 85.1%, the viability, T/C [31] was 83.5% and the viability, T/C [32] was 76.2%. For the same compound, the viability, T/C (second compound 3.16 µM, first compound 0.0316 µM) was 71.2%, the viability, T/C (second compound 3.16 µM, first compound 0.1 µM) was 64.5% and the viability, T/C (second compound 3.16 µM, first compound 0.316 µM) was 73.8%. For the same compound, the viability, T/C (second compound 3.16 µM, first compound 1 µM) was 62.5%, the viability, T/C (second compound 3.16 µM, first compound 3.16 µM) was 77.2% and the viability, T/C (second compound 3.16 µM, first compound 10 µM) was 67.5%. It also gave a viability, T/C (second compound 10 µM, first compound 0.0316 µM) of 59.7%, a viability, T/C (second compound 10 µM, first compound 0.1 µM) of 54.2% and a viability, T/C (second compound 10 µM, first compound 0.316 µM) of 56.2%. For the same compound, the viability, T/C (second compound 10 µM, first compound 1 µM) was 53.3%, the viability, T/C (second compound 10 µM, first compound 3.16 µM) was 56.4% and the viability, T/C (second compound 10 µM, first compound 10 µM) was 42.2%.

`CNC(=O)c1ccc(N2C(=S)N(c3ccc(C#N)c(C(F)(F)F)c3)C(=O)C2(C)C)cc1F` + COc1c(OCCCN2CCOCC2)ccc2c3n(c(=NC(=O)c4cnc(N)nc4)nc12)CCN3 gave an IC50 (second compound 0.00316 µM) of over 10 µM, an IC50 (second compound 0.01 µM) of over 10 µM and an IC50 (second compound 0.0316 µM) of over 10 µM. The IC50 (second compound 0.1 µM) was over 10 µM, the IC50 (second compound 0.316 µM) was 1.56 µM and the IC50 (second compound 1 µM) was under 0.0316 µM. It also gave a viability, T/C [1] of 109%, a viability, T/C [2] of 107% and a viability, T/C [3] of 99.3%. The viability, T/C [4] was 101%, the viability, T/C [33] was 104% and the viability, T/C [34] was 104%. It also gave a viability, T/C [5] of 105%, a viability, T/C [6] of 93.5% and a viability, T/C [7] of 102%. It also gave a viability, T/C [8] of 92%, a viability, T/C [35] of 100% and a viability, T/C [36] of 94.2%. For the same compound, the viability, T/C [9] was 85.2%, the viability, T/C [10] was 80.7% and the viability, T/C [11] was 85.7%. It also gave a viability, T/C [12] of 86.8%, a viability, T/C [25] of 93.2% and a viability, T/C [26] of 74.4%. For the same compound, the viability, T/C [13] was 70.8%, the viability, T/C [14] was 68.5% and the viability, T/C [15] was 75.7%. For the same compound, the viability, T/C [16] was 68.5%, the viability, T/C [27] was 69.1% and the viability, T/C [28] was 57.8%. The viability, T/C [17] was 51%, the viability, T/C [18] was 55.9% and the viability, T/C [19] was 53.9%. The viability, T/C [20] was 52%, the viability, T/C [29] was 46.4% and the viability, T/C [30] was 40.8%. For the same compound, the viability, T/C [21] was 36.4%, the viability, T/C [22] was 38.4% and the viability, T/C [23] was 39.3%. It also gave a viability, T/C [24] of 34.2%, a viability, T/C [31] of 36.1% and a viability, T/C [32] of 30.1%.

Compound `CC1(C)CCC(CN2CCN(c3ccc(C(=O)NS(=O)(=O)c4ccc(NCC5CCOCC5)c([N+](=O)[O-])c4)c(Oc4cnc5[nH]ccc5c4)c3)CC2)=C(c2ccc(Cl)cc2)C1` + COc1c(OCCCN2CCOCC2)ccc2c3n(c(=NC(=O)c4cnc(N)nc4)nc12)CCN3 has an IC50 (second compound 0.00316 µM) of over 10 µM, an IC50 (second compound 0.01 µM) of over 10 µM and an IC50 (second compound 0.0316 µM) of over 10 µM. For the same compound, the IC50 (second compound 0.1 µM) was 7.49 µM, the IC50 (second compound 0.316 µM) was 2.36 µM and the IC50 (second compound 1 µM) was under 0.0316 µM. The viability, T/C [1] was 105%, the viability, T/C [2] was 99.5% and the viability, T/C [3] was 99%. The viability, T/C [4] was 102%, the viability, T/C [33] was 99.7% and the viability, T/C [34] was 80.8%. For the same compound, the viability, T/C [5] was 104%, the viability, T/C [6] was 104% and the viability, T/C [7] was 97.6%. The viability, T/C [8] was 91.7%, the viability, T/C [35] was 96.5% and the viability, T/C [36] was 71.1%. The viability, T/C [9] was 92.4%, the viability, T/C [10] was 89.8% and the viability, T/C [11] was 92.8%. The viability, T/C [12] was 86.4%, the viability, T/C [25] was 87.3% and the viability, T/C [26] was 68.2%. For the same compound, the viability, T/C [13] was 74.9%, the viability, T/C [14] was 74.8% and the viability, T/C [15] was 71.2%. It also gave a viability, T/C [16] of 65.1%, a viability, T/C [27] of 59.5% and a viability, T/C [28] of 46.8%. It also gave a viability, T/C [17] of 53.5%, a viability, T/C [18] of 50.3% and a viability, T/C [19] of 49.2%. For the same compound, the viability, T/C [20] was 51.7%, the viability, T/C [29] was 49.6% and the viability, T/C [30] was 31.3%. It also gave a viability, T/C [21] of 37.5%, a viability, T/C [22] of 32.5% and a viability, T/C [23] of 35.8%. For the same compound, the viability, T/C [24] was 36.1%, the viability, T/C [31] was 33.7% and the viability, T/C [32] was 33.3%.
